The values below come from patent US20160130278A1 (TAISHO PHARMACEUTICAL CO., LTD, priority 2013, published 2016).

pIC50: −log10 of the molar value.

The target in the first assay is T1, human type 1 glycine transporter (GlyT1) (Homo sapiens, UniProt P48067).
T1 construct: T98G cells (glioma cells) expressing human type 1 glycine transporter (GlyT1) were used
T1 sequence (P48067 1-706): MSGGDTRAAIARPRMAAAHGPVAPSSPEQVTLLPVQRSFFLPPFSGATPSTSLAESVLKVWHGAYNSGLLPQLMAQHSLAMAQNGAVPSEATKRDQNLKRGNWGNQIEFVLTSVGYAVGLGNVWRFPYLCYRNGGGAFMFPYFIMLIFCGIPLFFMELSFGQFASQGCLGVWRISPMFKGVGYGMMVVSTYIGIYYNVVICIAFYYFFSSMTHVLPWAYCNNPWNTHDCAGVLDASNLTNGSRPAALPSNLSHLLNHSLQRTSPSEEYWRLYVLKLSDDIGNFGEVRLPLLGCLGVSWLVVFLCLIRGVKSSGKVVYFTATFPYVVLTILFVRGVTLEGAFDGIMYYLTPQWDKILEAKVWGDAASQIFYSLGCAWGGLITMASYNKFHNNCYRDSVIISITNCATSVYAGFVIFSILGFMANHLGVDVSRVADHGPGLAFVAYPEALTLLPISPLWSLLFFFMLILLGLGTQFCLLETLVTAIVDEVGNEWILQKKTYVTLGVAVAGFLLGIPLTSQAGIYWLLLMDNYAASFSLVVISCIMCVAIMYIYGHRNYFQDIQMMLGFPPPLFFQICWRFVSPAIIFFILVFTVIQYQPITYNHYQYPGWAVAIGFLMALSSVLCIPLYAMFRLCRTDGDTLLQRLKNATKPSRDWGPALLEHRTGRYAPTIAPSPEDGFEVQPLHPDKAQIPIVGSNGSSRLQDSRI
The assay can be described thus: Glycine uptake inhibition experiment ([3H]glycine uptake). To be noted: GlyT1. It is filed as cell-based. An outline of the steps: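 T98G glioma cells expressing human GlyT1 were pretreated 10 min with compound in HEPES buffer pH 7.4 (0.2% BSA), then incubated with compound plus 250 nM final [3H]glycine for 15 min at room temperature. Intracellular radioactivity was counted after NaOH lysis; 10 μM ALX5407 defined non-specific uptake. IC50 came from 10^−9–10^−5 M curves.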
As usually defined, the pIC50 is −log10 of the IC50, conventionally taken in molar units. Low values mean a high IC50, high ones a low IC50. On to `O=C(NC(c1cccc(F)c1Cl)[C@]1(O)CC[C@@H](F)CC1)c1ncc(C(F)(F)F)cc1-n1nccn1` (single isomer, unassigned) [Compound 392, N-[(2-chloro-3-fluorophenyl)(cis-4-fluoro-1-hydroxycyclohexyl)methyl]-3-(2H-1,2,3-triazol-2-yl)-5-(trifluoromethyl)pyridine-2-carboxamide], for which the pIC50 is 6.96.

With `O=C(NC(c1cccc(F)c1Cl)[C@]1(O)CC[C@@H](F)CC1)c1ccc(C(F)(F)F)nc1-n1nccn1` (single isomer, unassigned) [Compound 393, N-[(2-chloro-3-fluorophenyl)(cis-4-fluoro-1-hydroxycyclohexyl)methyl]-2-(2H-1,2,3-triazol-2-yl)-6-(trifluoromethyl)pyridine-3-carboxamide], the pIC50 is 7.40.

On to `O=C(NC(c1cccc(F)c1Cl)[C@]1(O)CC[C@@H](F)CC1)c1ccc(C(F)(F)F)nc1-n1ccnn1` (single isomer, unassigned) [Compound 394, N-[(2-chloro-3-fluorophenyl)(cis-4-fluoro-1-hydroxycyclohexyl)methyl]-2-(1H-1,2,3-triazol-1-yl)-6-(trifluoromethyl)pyridine-3-carboxamide], for which the negative logarithm of the IC50 (pIC50) is 5.89.

`CS(=O)(=O)c1ccc(C(F)(F)F)cc1C(=O)NC(c1ccccc1Cl)C1(O)CCC(F)(F)CC1` (single isomer, unassigned) [Compound 395, N-[(2-chlorophenyl)(4,4-difluoro-1-hydroxycyclohexyl)methyl]-2-(methylsulfonyl)-5-(trifluoromethyl)benzamide] gave a negative logarithm of the IC50 (pIC50) of 6.48. Against the preceding molecule, the pIC50 is 0.59 log units higher.

As for `CS(=O)(=O)c1ccc(C(F)(F)F)cc1C(=O)NC(c1cc(Cl)ccn1)[C@]1(O)CC[C@@H](F)CC1` (single isomer, unassigned) [Compound 396, N-[(4-chloropyridin-2-yl)(cis-4-fluoro-1-hydroxycyclohexyl]methyl]-2-(methylsulfonyl)-5-(trifluoromethyl)benzamide], the pIC50 is 6.54.

Regarding `CCn1cc(-c2cccc(C(NC(=O)c3cccc(C(F)(F)F)c3Cl)C3(O)CCCC3)c2)cn1` (stereo not shown) [Compound 1, 2-chloro-N-{[3-(1-ethyl-1H-pyrazol-4-yl)phenyl](1-hydroxycyclopentyl)methyl}-3-(trifluoromethyl)benzamide], the pIC50 is 6.96.

As to `O=C(NC(c1cccc(Br)c1)C1(O)CCCC1)c1cccc(C(F)(F)F)c1Cl` (stereo not shown) [Compound 2, N-[(3-bromophenyl)(1-hydroxycyclopentyl)methyl]-2-chloro-3-(trifluoromethyl)benzamide], the pIC50 was 6.17.

On to `O=C(NC(c1cccc(-c2cccnc2)c1)C1(O)CCCC1)c1cccc(C(F)(F)F)c1Cl` (stereo not shown) [Compound 3, 2-chloro-N-{(1-hydroxycyclopentyl)[3-(pyridin-3-yl)phenyl]methyl}-3-(trifluoromethyl)benzamide], for which the pIC50 is 6.44.

Consider `O=C(NC(c1cccc(-c2ccncc2)c1)C1(O)CCCC1)c1cccc(C(F)(F)F)c1Cl` (stereo not shown) [Compound 4, 2-chloro-N-{(1-hydroxycyclopentyl)[3-(pyridin-4-yl)phenyl]methyl}-3-(trifluoromethyl)benzamide], for which the pIC50 was 6.40.

Consider `N#Cc1ccc(-c2cccc(C(NC(=O)c3cccc(C(F)(F)F)c3Cl)C3(O)CCCC3)c2)cc1` (stereo not shown) [Compound 5, 2-chloro-N-[(4′-cyanobiphenyl-3-yl)(1-hydroxycyclopentyl)methyl]-3-(trifluoromethyl)benzamide], for which the pIC50 is 6.06.

Take `CC(=O)c1ccc(-c2cccc(C(NC(=O)c3cccc(C(F)(F)F)c3Cl)C3(O)CCCC3)c2)cc1` (stereo not shown) [Compound 6, N-[(4′-acetylbiphenyl-3-yl)(1-hydroxycyclopentyl)methyl]-2-chloro-3-(trifluoromethyl)benzamide]: the pIC50 is 6.17.

Consider `O=C(NC(c1cccc(-c2cncnc2)c1)C1(O)CCCC1)c1cccc(C(F)(F)F)c1Cl` (stereo not shown) [Compound 7, 2-chloro-N-{(1-hydroxycyclopentyl)[3-(pyrimidin-5-yl)phenyl]methyl}-3-(trifluoromethyl)benzamide], for which the pIC50 is 6.54.

In turn, `N#Cc1cccc(C(NC(=O)c2cccc(C(F)(F)F)c2Cl)C2(O)CCCC2)c1` (stereo not shown) [Compound 8, 2-chloro-N-[(3-cyanophenyl)(1-hydroxycyclopentyl)methyl]-3-(trifluoromethyl)benzamide] gave a pIC50 of 6.40.

The same assay, now with this note: human GlyT1.
On to `O=C(NC(c1cccc(Cl)n1)C1(O)CCCC1)c1nccc(C(F)(F)F)c1Cl` (single isomer, unassigned) [Compound 397, 3-chloro-N-[(6-chloropyridin-2-yl)(1-hydroxycyclopentyl)methyl]-4-(trifluoromethyl)pyridine-2-carboxamide], for which the pIC50 is 7.80.

In turn, `O=C(NC(c1cccc(Cl)n1)C1(O)CCCC1)c1nccc(C(F)(F)F)c1Cl` (single isomer, unassigned) [Compound 398, 3-chloro-N-[(6-chloropyridin-2-yl)(1-hydroxycyclopentyl)methyl]-4-(trifluoromethyl)pyridine-2-carboxamide] had a pIC50 of 5.12.

`O=C(NC(c1cccc(F)c1)C1(O)CCC(F)(F)CC1)c1ccnc(C(F)(F)F)c1Cl` (single isomer, unassigned) [Compound 400, 3-chloro-N-[(4,4-difluoro-1-hydroxycyclohexyl)(3-fluorophenyl)methyl]-2-(trifluoromethyl)pyridine-4-carboxamide] had a pIC50 of 6.64.

As for `CS(=O)(=O)c1cc(C(F)(F)F)ccc1C(=O)NC(c1cccc(F)c1Cl)C1(O)CCC(F)(F)CC1` (single isomer, unassigned) [Compound 401, N-[(2-chloro-3-fluorophenyl)(4,4-difluoro-1-hydroxycyclohexyl)methyl]-2-(methylsulfonyl)-4-(trifluoromethyl)benzamide], the pIC50 is 6.64.

Regarding `CS(=O)(=O)c1cc(C(F)(F)F)ccc1C(=O)NC(c1cccc(Cl)c1F)C1(O)CCC(F)(F)CC1` (single isomer, unassigned) [Compound 402, N-[(3-chloro-2-fluorophenyl)(4,4-difluoro-1-hydroxycyclohexyl)methyl]-2-(methylsulfonyl)-4-(trifluoromethyl)benzamide], the pIC50 was 6.35.

As to `CS(=O)(=O)c1cnc(C(F)(F)F)cc1C(=O)NC(c1ccccc1Cl)C1(O)CCC(F)(F)CC1` (single isomer, unassigned) [Compound 403, N-[(2-chlorophenyl)(4,4-difluoro-1-hydroxycyclohexyl)methyl]-5-(methylsulfonyl)-2-(trifluoromethyl)pyridine-4-carboxamide], the pIC50 was 6.92.

Consider `CS(=O)(=O)c1ncc(C(F)(F)F)cc1C(=O)NC(c1ccccc1Cl)C1(O)CCC(F)(F)CC1` (single isomer, unassigned) [Compound 404, N-[(2-chlorophenyl)(4,4-difluoro-1-hydroxycyclohexyl)methyl]-2-(methylsulfonyl)-5-(trifluoromethyl)pyridine-3-carboxamide], for which the pIC50 was 6.77. The pIC50 values of the last two molecules are within 0.2 log units of each other.

As for `CS(=O)(=O)c1cc(C(F)(F)F)ccc1C(=O)NC(c1ccccc1Cl)C1(O)CCC(F)(F)CC1` (single isomer, unassigned) [Compound 405, N-[(2-chlorophenyl)(4,4-difluoro-1-hydroxycyclohexyl)methyl]-2-(methylsulfonyl)-4-(trifluoromethyl)benzamide], the pIC50 is 6.70.

In the case of `CS(=O)(=O)c1nc(C(F)(F)F)ccc1C(=O)NC(c1ccccc1Cl)C1(O)CCC(F)(F)CC1` (single isomer, unassigned) [Compound 406, N-[(2-chlorophenyl)(4,4-difluoro-1-hydroxycyclohexyl)methyl]-2-(methylsulfonyl)-6-(trifluoromethyl)pyridine-3-carboxamide], the pIC50 is 6.49.

The molecule `O=C(NC(c1ccccc1Cl)C1(O)CCC(F)(F)CC1)c1ncc(C(F)(F)F)cc1-n1nccn1` (single isomer, unassigned) [Compound 407, N-[(2-chlorophenyl)(4,4-difluoro-1-hydroxycyclohexyl)methyl]-3-(2H-1,2,3-triazol-2-yl)-5-(trifluoromethyl)pyridine-2-carboxamide] gave a pIC50 of 6.00.

As for `O=C(NC(c1ccccc1Cl)C1(O)CCC(F)(F)CC1)c1ccc(C(F)(F)F)nc1-n1nccn1` (single isomer, unassigned) [Compound 408, N-[(2-chlorophenyl)(4,4-difluoro-1-hydroxycyclohexyl)methyl]-2-(2H-1,2,3-triazol-2-yl)-6-(trifluoromethyl)pyridine-3-carboxamide], the pIC50 was 5.66.

As for `O=C(NC(c1ccccc1Cl)C1(O)CCC(F)(F)CC1)c1ccc(C(F)(F)F)nc1Cl` (single isomer, unassigned) [Compound 409, 2-chloro-N-[(2-chlorophenyl)(4,4-difluoro-1-hydroxycyclohexyl)methyl]-6-(trifluoromethyl)pyridine-3-carboxamide], the pIC50 was 5.96.
